Reference: patent EP1523993A1, “Polypeptide compositions with improved stability” (Eli Lilly & Company, priority 1999, dated 2001)

Tests used:
[1] = system: Humulin® N (U40); experiment: Modified 10X Glycerin Stress Test (Mod.10X-GST): HMWP growth by size exclusion HPLC; type: physicochemical, human
Protocol: One milliliter of Humulin® N (U40, Eli Lilly & Co., Indianapolis IN, USA) is spiked with about 160 mg (about 128 µl) of glycerin to be tested. This glycerin level is about ten times the normal level found in commercial products. Another milliliter of Humulin® N U40 is spiked with 128 µL of water. Both samples are stored at 30°C for 7 days. The high molecular weight protein (HMWP) level of the two samples is then measured by size exclusion HPLC chromatography under denaturing conditions [e.g., Waters column labeled "Protein-Pak 125 insulin assay certified", Waters Corporation (Milford, MA, USA) part number 20574; mobile phase 65 parts of a 1 mg/mL L-arginine solution, 20 parts of acetonitrile and 15 parts of glacial acetic acid]. The test samples are solubilized by acidification with a small volume of 9.6 N HCl prior to analysis.
The HMWP growth in the sample is calculated as the HMWP level in the 30°C test sample minus the HMWP level in the water spiked control. Percent growth is reported per 7 day period.

[2] = system: Humulin® R (U40); experiment: 10X Glycerin Stress Test (10X-GST): HMWP growth by size exclusion HPLC; type: physicochemical, human; conditions: Humulin® R with 160 mg/mL glycerin, 7 days at 30°C minus frozen control
Protocol: The 10X Glycerin Stress Test (10X-GST) measures the formation of covalent dimers and polymers in an insulin composition. Glycerin to be tested is added to Humulin® R (U40, Eli Lilly & Co., Indianapolis IN, USA) to a final concentration of 160 mg/mL of glycerin, i.e., ten times the level of glycerin normally used in this formulation. One aliquot of the resulting formulation is incubated at 30°C for 7 days, while a second aliquot is stored frozen over the same time period. Then, the high molecular weight protein (HMWP) level of the two aliquots is measured by size exclusion HPLC chromatography under denaturing conditions (e.g., Zorbax GF 250 Special column; mobile phase 65 parts of 0.1M ammonium phosphate buffer at pH 7.5 and 35 parts acetonitrile; detection at 214 nm). The growth of HMWP in the test formulation is the concentration of HMWP in the 30°C sample minus the concentration of HMWP in the frozen control.

[3] = Humulin® N with treated or untreated glycerin, 7 days at 30°C, Table 7
[4] = Humulin® N spiked with about 160 mg glycerin per mL, 7 days at 30°C minus water spiked control, Table 5

Structure (SMILES) | Mod.10X-GST Test [1, 3] [%] | 10X-GST Test [2] | Mod.10X-GST Test [1, 4] [%]
OCC(O)CO [Sample 10, glycerin] | -0.03 | – | –
OCC(O)CO [Sample 5, glycerin] | -0.27 | – | –
OCC(O)CO [Sample 1, glycerin] | 1.84 | – | –
OCC(O)CO [Sample 7, glycerin] | 3.65 | 0.22 | 0.09
OCC(O)CO [Sample 6, glycerin] | 4.68 | 0.13 | 0.13
OCC(O)CO [Sample 2, glycerin] | 1.58 | – | –
OCC(O)CO [Sample 8, glycerin] | – | 0.01 | 0.17
